Data on two molecules can be found in patent US9999596B2 (priority 2004, dated 2018).

Usually MRT stands for the average time that molecules of a dose stay in the body. Broadly, the AUC(0-inf) is total exposure, with the tail of the curve extrapolated. Low readings indicate low exposure, high ones high exposure. Broadly, the AUC(0-t) is exposure summed from dosing to a finite time, without extrapolation to infinity. A lower AUC(0-t) goes with less exposure. As a reminder, the bioavailability is the share of a dose that reaches the circulation, judged against a reference dose that is usually intravenous. A high value points to good availability. Usually AUC stands for the area under the concentration-time curve, a measure of exposure. A higher AUC goes with high exposure. What is called half-life is how long it takes for the measured level to halve. As usually defined, the clearance is the volume of plasma or blood freed of the substance per unit of time. A higher clearance goes with efficient removal. As a reminder, the Cmax is the maximum level reached in the sampled fluid or tissue. As a reminder, the Vd is the apparent volume that relates the amount in the body to the concentration in plasma or blood. Broadly, the Vd/F is the volume of distribution divided by bioavailability.

Read-outs that look alike come from different tables or passages of the source.

The subject of series [1] is human umbilical venular endothelial cells. As to conditions: cited from earlier work.
The subject of series [2] is A2780 (sensitive) human ovarian carcinoma cells. The experiment in a line: cells. The class given is cell-based. As to conditions: A2780, 48 h, read-out: IC50 (nM) A2780.
For series [3], the system named is A2780/AD (multidrug resistant) human ovarian carcinoma cells. Description: cells. The class given is cell-based. As to conditions: A2780AD, 48 h, read-out: IC50 (nM) A2780/AD.
For series [4] the following is noted: female, Fischer 344, rat, in vivo.
The nature of a further series: in vivo. As to conditions: female, Fischer 344, rat.
For another series, the system named is Mat B-III tumors. The experiment in a line: Pharmacodynamic tumor-growth delay study.

Source text for Mat B-III tumors: Mat B-III cells were obtained from American Type Culture Collection (Rockville, Md.). The cells were maintained in culture in vitro in RMPI medium supplemented with 10% fetal bovine serum, 100 units/ml penicillin-streptomycin sulfate, 2% sodium bicarbonate and 1% non-essential amino acids.
Female Fischer 344 rats (160-180 g) were purchased from Hilltop Laboratories (Scottdale, Pa.) and allowed to acclimate for one week. The rats were housed, two per cage and tagged to facilitate identification. Mat B-III cells grown in serum-containing medium were washed with phosphate buffer and trypsinized for 5 minutes. The cells were collected and centrifuged for 5 minutes. The cell pellet was resuspended in Dulbecco's phosphate buffer (DPBS) and centrifuged as above. This process was repeated three times. Finally the cell pellet (2×10^6 cells/ml) was resuspended and the cells were injected (0.5 ml=1×10^6 cells) subcutaneously into the back of the rats. The rats were weighed daily and examined for tumor development and distress. The tumor size was measured in two dimensions using calipers and the tumor mass was calculated as described in Equation 4.5.
Once the tumors reached a size of approximately 1 cm^3, (500-1000 mg) the rats were randomized into five experimental groups. […] All treatments were administered s.c. in the vicinity of the tumor. The rats were monitored daily for weight loss, tumor growth, skin lesions, distress or ascites. Body weight loss and lethal toxicity were taken into account when evaluating the toxic effects induced by the drug treatment. […]
Therefore, to adequately compare the various treatments, the rats were divided into two groups of 16 rats each based on the size of the tumors on day 10 following inoculation (small tumor group: size ˜500 mg and large tumor group: size ˜1000 mg). […] The dimensions of the tumors were measured prior to and post administration of the treatments in the case of the hydrogel groups to account for the volume of hydrogel.

Regarding `CC[C@@]1(O)C(=O)OCc2c1cc1n(c2=O)Cc2cc3ccccc3nc2-1` [CPT, Camptothecin], the “growth of human umbilical venular endothelial cells in vitro” value in series [1] was “inhibited the growth”.
With `CC[C@@]1(O)C(=O)OCc2c1cc1n(c2=O)Cc2cc3c(CN(C)C)c(O)ccc3nc2-1` [TPT, 9-amino-dimethyl-10-hydroxycamptothecin], in series [2], the IC50 was found to be 25.3 ± 1.4 nM. In addition, the IC50 in series [3] turned out to be 55.9 ± 2.67 nM. The “MAT (mean absorption time)” value in series [4] (10 mg/kg) turned out to be 10.44 h. Besides, in series [4] (iv, 10 mg/kg), the Alpha turned out to be 0.84 h⁻¹, the Cl was found to be 444.59 mL/h, the MRT was found to be 3.92 h and the Vz/F stood at 3552.68 mL. Further, the kel in series [4] (iv, 10 mg/kg) came to 0.14 h⁻¹. Also, the “dose fraction (F) that appeared in the systemic circulation” value in series [4] (sc) is recorded as 92%. In series [4] (sc, 10 mg/kg), this molecule gave a Vz of 5483.75 mL, a kel of 0.10 h⁻¹ and a tmax of 1.56 h. Further, the “growth of human umbilical venular endothelial cells in vitro” value in series [1] is recorded as “inhibited the growth”. In the series “in vivo” (iv, 10 mg/kg), the AUC(0-inf) came out at 5910 ng·h/mL, the AUC(0-t) came out at 5790 ng·h/mL, the bioavailability is 100% and the AUC amounted to 5960 ng·h/mL. Further, in the series “in vivo” (iv, 10 mg/kg), the Cmax is 4360 ng/mL and the MRT was determined as 2.95 h. Moreover, in “in vivo” (iv, 10 mg/kg, Alpha-t1/2), the half-life was 50.4 ± 4.2 min. In the series “in vivo” (iv, 10 mg/kg, Cl), this molecule had a clearance of 7.55 mL/min. This molecule also registered a Vd in the series “in vivo” (iv, 10 mg/kg, Vss) of 1.32 L. In addition, the Vd in the series “in vivo” (iv, 10 mg/kg, Vz) came out at 3.55 L. Besides, the half-life in the series “in vivo” (iv, 10 mg/kg, t1/2) was 370 ± 33.6 min. This molecule came in with a bioavailability in the series “in vivo” (sc) of 98.8%. Besides, in “in vivo” (sc, 10 mg/kg), the AUC(0-inf) was 5380 ng·h/mL, the AUC(0-t) was 4470 ng·h/mL, the bioavailability is 91.8% and the AUC was 5800 ± 894 ng·h/mL. In the series “in vivo” (sc, 10 mg/kg), the highest level (Cmax) was 468 ± 177 ng/mL and the mean residence time (MRT) is 13.4 h. This molecule gave a half-life in “in vivo” (sc, 10 mg/kg, Ka-t1/2) of 19.2 ± 3 min. The Vd/F in the series “in vivo” (sc, 10 mg/kg, Vss/F) came out at 6.07 L. Also, the Vd/F in “in vivo” (sc, 10 mg/kg, Vz/F) came to 5.97 L. In “in vivo” (sc, 10 mg/kg, t1/2), this molecule had a half-life of 385 ± 119 min. The molecule also gave a tmax in the series “in vivo” (sc, 10 mg/kg, tmax) of 2.67 h. Moreover, the “effect on tumor size, small tumor group” value in the series on Mat B-III tumors (5 mg/kg s.c., tumors ~500 mg, 16 days) is “very effective initially in reducing tumor size”. Moreover, the “effect on tumor size, large tumor group” value in the series with Mat B-III tumors (5 mg/kg s.c., tumors ~1000 mg) was “initially effective”. The “appearance of resected tumors” value in the series with Mat B-III tumors (at completion of study) was “highly vascularized and firm”.
